Measured values published in PubChem BioAssay AID330 (DTP/NCI, 2004).
Inconclusive results and toxic doses are left out. Numbered stars: 1 amine (or outer) side, 2 acyl side, 3 side chain; on linkers, the order of the positions; unused ones are H or OH. Bridge positions count the residues as written; N and C are the ends. Square brackets hold non-standard residues; d marks the D form. Peptide text beside a SMILES is read from it. I, II: the chains in the order shown. Actinocin(1to9) = Cc1c2oc3c(C)ccc(C(=O)[*:2])c3nc-2c(C(=O)[*:1])c(N)c1=O; NMeV = CN[CH](C(=O)O)C(C)C; Aze = O=C(O)[CH]1CCN1; Sar = CNCC(=O)O

Test system: P388 leukemia ip, CD2F1 mice, survival T/C
Test: NCI In Vivo Anticancer Drug Screen. Data for tumor model P388 Leukemia (intraperitoneal) in CD2F1 (CDF1) mice
Conditions: endpoint: median survival time, higher = longer survival
Summary of the method: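 Mice carrying the transplanted tumor received test compound or vehicle. Survival was recorded in each group, and the value is the treated-group measurement divided by that of the vehicle-treated control group.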

For `CC(=O)O[C@]12C=C[C@H](O1)[C@@H]1C(=O)NC(=O)[C@@H]12`, the T/C (dose: 6.25 mg/kg/injection, schedule: Q04DX002 (ip), vehicle: saline) was 98 % of control, the T/C (dose: 12.5 mg/kg/injection, schedule: Q04DX002 (ip), vehicle: saline) was 106 % of control and the T/C (dose: 25.0 mg/kg/injection, schedule: Q04DX002 (ip), vehicle: saline) was 88 % of control.
In the case of `Cc1c2oc3c(C)ccc(C(=O)NC4C(=O)NC(C(C)C)C(=O)N5CCCC5C(=O)N(C)CC(=O)N(C)C(C(C)C)C(=O)OC4C)c3nc-2c(C(=O)NC2C(=O)NC(C(C)C)C(=O)N3CCC3C(=O)N(C)CC(=O)N(C)C(C(C)C)C(=O)OC2C)c(N)c1=O` (stereo unspecified) (I: TV[Aze][Sar][NMeV] / II: TVP[Sar][NMeV]; ester I:1-I:C, II:1-II:C; linker I:N-II:N via Actinocin(1to9); configuration not given here), the T/C (dose: 0.05 mg/kg/injection, schedule: Q01DX009 (ip), vehicle: water) is reported as 214 % of control, the T/C (dose: 0.08 mg/kg/injection, schedule: Q04DX003 (ip), vehicle: saline) is reported as 96 % of control and the T/C (dose: 0.15 mg/kg/injection, schedule: Q04DX003 (ip), vehicle: saline) is reported as 102 % of control. The T/C (dose: 0.3 mg/kg/injection, schedule: Q04DX003 (ip), vehicle: saline) was 105 % of control, the T/C (dose: 12.5 micrograms/kg/injection, schedule: Q01DX009 (ip), vehicle: saline) was 123 % of control and the T/C (dose: 12.5 micrograms/kg/injection, schedule: Q01DX009 (ip), vehicle: water) was 167 % of control. For the same compound, the T/C (dose: 19.4 micrograms/kg/injection, schedule: Q01DX009 (ip), vehicle: saline + alcohol) was 150 % of control, the T/C (dose: 25.0 micrograms/kg/injection, schedule: Q01DX009 (ip), vehicle: water) was 200 % of control and the T/C (dose: 32.4 micrograms/kg/injection, schedule: Q01DX009 (ip), vehicle: saline + alcohol) was 165 % of control. The T/C (dose: 50.0 micrograms/kg/injection, schedule: Q01DX009 (ip), vehicle: saline) was 155 % of control, the T/C (dose: 50.0 micrograms/kg/injection, schedule: Q01DX009 (ip), vehicle: water) was 266 % of control and the T/C (dose: 54.0 micrograms/kg/injection, schedule: Q01DX009 (ip), vehicle: saline + alcohol) was 177 % of control. For the same compound, the T/C (dose: 90.0 micrograms/kg/injection, schedule: Q01DX009 (ip), vehicle: saline + alcohol) was 186 % of control, the T/C (dose: 100.0 micrograms/kg/injection, schedule: Q01DX009 (ip), vehicle: saline) was 171 % of control and the T/C (dose: 100.0 micrograms/kg/injection, schedule: Q01DX009 (ip), vehicle: water) was 89 % of control. For the same compound, the T/C (dose: 150.0 micrograms/kg/injection, schedule: Q01DX009 (ip), vehicle: saline + alcohol) was 238 % of control, the T/C (dose: 200.0 micrograms/kg/injection, schedule: Q01DX009 (ip), vehicle: saline) was 250 % of control and the T/C (dose: 250.0 micrograms/kg/injection, schedule: Q01DX009 (ip), vehicle: saline + alcohol) was 100 % of control. For the same compound, the T/C (dose: 400.0 micrograms/kg/injection, schedule: Q01DX009 (ip), vehicle: saline) was 86 % of control.
With `O=C1OC2(c3ccc(O)cc3Oc3cc(O)ccc32)C2C3C=CC(C3)C12` (stereo unspecified) the T/C (dose: 60.0 mg/kg/injection, schedule: Q01DX005 (ip), vehicle: Klucel (hydroxypropylcellulose) (HPC)) was 100 % of control, the T/C (dose: 120.0 mg/kg/injection, schedule: Q01DX005 (ip), vehicle: Klucel (hydroxypropylcellulose) (HPC)) was 104 % of control and the T/C (dose: 240.0 mg/kg/injection, schedule: Q01DX005 (ip), vehicle: Klucel (hydroxypropylcellulose) (HPC)) was 100 % of control.
`CC=C=CCN(C)Cc1ccccc1` was tested, and the T/C (dose: 6.25 mg/kg/injection, schedule: Q01DX009 (ip), vehicle: saline) was 107 % of control, the T/C (dose: 12.5 mg/kg/injection, schedule: Q01DX009 (ip), vehicle: saline) was 94 % of control and the T/C (dose: 25.0 mg/kg/injection, schedule: Q01DX009 (ip), vehicle: saline) was 109 % of control. The T/C (dose: 50.0 mg/kg/injection, schedule: Q04DX003 (ip), vehicle: Klucel (hydroxypropylcellulose) (HPC)) was 108 % of control and the T/C (dose: 100.0 mg/kg/injection, schedule: Q04DX003 (ip), vehicle: Klucel (hydroxypropylcellulose) (HPC)) was 88 % of control.
With `COc1cc2cc3cc(-c4ccc(Cl)cc4)c(N4CCOCC4)nc3nc2cc1OC` the T/C (dose: 15.0 mg/kg/injection, schedule: Q01DX005 (ip), vehicle: saline with Tween-80) was 92 % of control, the T/C (dose: 30.0 mg/kg/injection, schedule: Q01DX005 (ip), vehicle: saline with Tween-80) was 93 % of control and the T/C (dose: 120.0 mg/kg/injection, schedule: Q01DX005 (ip), vehicle: saline with Tween-80) was 91 % of control. For the same compound, the T/C (dose: 240.0 mg/kg/injection, schedule: Q01DX005 (ip), vehicle: saline with Tween-80) was 93 % of control.
For `CN1C2=NCCN2C(=O)c2cc(Cl)ccc21`, the T/C (dose: 50.0 mg/kg/injection, schedule: Q01DX009 (ip), vehicle: Klucel (hydroxypropylcellulose) (HPC)) was 105 % of control and the T/C (dose: 100.0 mg/kg/injection, schedule: Q01DX009 (ip), vehicle: Klucel (hydroxypropylcellulose) (HPC)) was 98 % of control.
